Like-named read-outs stand apart in the source and are kept apart here.
Tested on: panel of cell lines and tumor explants
Assay: Soft agar (clonogenic) assay on cell lines and tumor explants
Format: cell-based, human
Design: key to Differential: panel average log(GI50) minus sample log(GI50); positive = more sensitive
Details: for Differential: average log(GI50) 0.236 minus log(GI50); for GI50: Homo sapiens
Experimental: Compound IIa was tested against a panel of cell lines and tumor explants in a soft agar assay as described in Fiebig, H. H., Maier, A., and Burger, A. M. (Clonogenic assay with established human tumour xenorafts: correlation of in vitro to in vivo activity as a basis for anticancer drug discovery, Eur. J. Cancer 40, 802-820 (2004).) Table 16 lists the type of cancer, the name of the sample, its GI50 (concentration needed to achieve 50% growth inhibition) value in the assay, the logarithm of the GI50 (log(GI50), and the relative sensitivity of each sample (Differential). The differential is calculated by subtracting the log(GI50) for each cell line from the average log(GI50) across the entire panel (0.236 in this case); a positive value indicates a sample that is more sensitive than average, whereas a negative value indicates a sample that is less sensitive than average.

`CC(C)(C)[C@H](c1nc(-c2cc(F)ccc2F)cn1Cc1ccccc1)N(CC[C@H](N)CF)C(=O)CO` [Compound IIa] gave a Differential (Bladder, sample 439) of −0.764, a Differential (Bladder, sample 1036) of 1.176 and a Differential (Bladder, sample 1218) of 0.530. It also gave a Differential (Bladder, sample 1228) of 0.738, a Differential (Bladder, sample 1258) of −0.996 and a Differential (Bladder, sample 1352) of 0.249. It also gave a Differential (Breast, sample 401) of 0.486, a Differential (Breast, sample 449) of 0.509 and a Differential (Breast, sample 574) of −0.764. The Differential (Breast, sample 583) was 0.858, the Differential (Breast, sample 713) was 0.849 and the Differential (Breast, sample 857) was −0.154. It also gave a Differential (Breast, sample 1162) of 0.780, a Differential (Breast, sample 1322) of 0.090 and a Differential (Breast, sample 1384) of −0.189. The Differential (Breast, sample 1398) was 0.858, the Differential (Colorectal, sample 94LX) was −1.054 and the Differential (Colorectal, sample 158) was −0.764. It also gave a Differential (Colorectal, sample 233) of 0.860, a Differential (Colorectal, sample 243) of −0.764 and a Differential (Colorectal, sample 260) of −0.764. For the same compound, the Differential (Colorectal, sample 268) was −0.559, the Differential (Colorectal, sample 280) was −0.764 and the Differential (Colorectal, sample 504) was 0.800. The Differential (Colorectal, sample 533) was −0.007, the Differential (Colorectal, sample 609) was −0.764 and the Differential (Colorectal, sample 647) was −0.764. It also gave a Differential (Colorectal, sample 676) of −0.764, a Differential (Colorectal, sample 742) of −0.036 and a Differential (Colorectal, sample 975) of −0.764. For the same compound, the Differential (Colorectal, sample 1034) was 0.906, the Differential (Colorectal, sample 1044) was 0.450 and the Differential (Colorectal, sample 1103) was 0.236. It also gave a Differential (Colorectal, sample 1297) of −0.764, a Differential (Colorectal, sample 1299) of −0.764 and a Differential (Colorectal, sample 1729) of −0.764. For the same compound, the Differential (Colorectal, sample 1753) was −0.816, the Differential (Colorectal, sample 1783) was 0.378 and the Differential (Colorectal, sample 1784) was −0.539. The Differential (Colorectal, sample 1788) was −0.115, the Differential (Gastric, sample 209) was −0.764 and the Differential (Gastric, sample 214) was −0.718. For the same compound, the Differential (Gastric, sample 1172) was −0.764, the GI50 (22Rv1, Prostate, sample 22RV1, GI50 in nM, read-out: log(GI50) (converted)) was 0.537 nM and the GI50 (22Rv1, Prostate, sample 22RV1, read-out: GI50) was 0.537 nM. It also gave a GI50 (Bladder, sample 439, GI50 in nM, read-out: log(GI50) (converted)) of no less than 10 nM, a GI50 (Bladder, sample 439, read-out: GI50) of 10 nM and a GI50 (Bladder, sample 1036, GI50 in nM, read-out: log(GI50) (converted)) of 0.115 nM. For the same compound, the GI50 (Bladder, sample 1036, read-out: GI50) was 0.115 nM, the GI50 (Bladder, sample 1218, GI50 in nM, read-out: log(GI50) (converted)) was 0.509 nM and the GI50 (Bladder, sample 1218, read-out: GI50) was 0.509 nM. It also gave a GI50 (Bladder, sample 1228, GI50 in nM, read-out: log(GI50) (converted)) of 0.315 nM, a GI50 (Bladder, sample 1228, read-out: GI50) of 0.315 nM and a GI50 (Bladder, sample 1258, GI50 in nM, read-out: log(GI50) (converted)) of 17.1 nM. The GI50 (Bladder, sample 1258, read-out: GI50) was 17.1 nM, the GI50 (Bladder, sample 1352, GI50 in nM, read-out: log(GI50) (converted)) was 0.973 nM and the GI50 (Bladder, sample 1352, read-out: GI50) was 0.972 nM. It also gave a GI50 (Breast, sample 401, GI50 in nM, read-out: log(GI50) (converted)) of 0.564 nM, a GI50 (Breast, sample 401, read-out: GI50) of 0.563 nM and a GI50 (Breast, sample 449, GI50 in nM, read-out: log(GI50) (converted)) of 0.535 nM. It also gave a GI50 (Breast, sample 449, read-out: GI50) of 0.534 nM, a GI50 (Breast, sample 574, GI50 in nM, read-out: log(GI50) (converted)) of no less than 10 nM and a GI50 (Breast, sample 574, read-out: GI50) of 10 nM. For the same compound, the GI50 (Breast, sample 583, GI50 in nM, read-out: log(GI50) (converted)) was 0.239 nM, the GI50 (Breast, sample 583, read-out: GI50) was 0.239 nM and the GI50 (Breast, sample 713, GI50 in nM, read-out: log(GI50) (converted)) was 0.244 nM. It also gave a GI50 (Breast, sample 713, read-out: GI50) of 0.244 nM, a GI50 (Breast, sample 857, GI50 in nM, read-out: log(GI50) (converted)) of 2.45 nM and a GI50 (Breast, sample 857, read-out: GI50) of 2.46 nM. For the same compound, the GI50 (Breast, sample 1162, GI50 in nM, read-out: log(GI50) (converted)) was 0.286 nM, the GI50 (Breast, sample 1162, read-out: GI50) was 0.286 nM and the GI50 (Breast, sample 1322, GI50 in nM, read-out: log(GI50) (converted)) was 1.4 nM. It also gave a GI50 (Breast, sample 1322, read-out: GI50) of 1.4 nM, a GI50 (Breast, sample 1384, GI50 in nM, read-out: log(GI50) (converted)) of 2.67 nM and a GI50 (Breast, sample 1384, read-out: GI50) of 2.67 nM. The GI50 (Breast, sample 1398, GI50 in nM, read-out: log(GI50) (converted)) was 0.239 nM, the GI50 (Breast, sample 1398, read-out: GI50) was 0.239 nM and the GI50 (CCRF-CEM, Leukemia (ALL), sample CCRFCEM, GI50 in nM, read-out: log(GI50) (converted)) was 0.287 nM. For the same compound, the GI50 (CCRF-CEM, Leukemia (ALL), sample CCRFCEM, read-out: GI50) was 0.287 nM, the GI50 (Colorectal, sample 94LX, GI50 in nM, read-out: log(GI50) (converted)) was 19.5 nM and the GI50 (Colorectal, sample 94LX, read-out: GI50) was 19.5 nM. It also gave a GI50 (Colorectal, sample 158, GI50 in nM, read-out: log(GI50) (converted)) of no less than 10 nM, a GI50 (Colorectal, sample 158, read-out: GI50) of 10 nM and a GI50 (Colorectal, sample 233, GI50 in nM, read-out: log(GI50) (converted)) of 0.238 nM. It also gave a GI50 (Colorectal, sample 233, read-out: GI50) of 0.238 nM, a GI50 (Colorectal, sample 243, GI50 in nM, read-out: log(GI50) (converted)) of no less than 10 nM and a GI50 (Colorectal, sample 243, read-out: GI50) of 10 nM. For the same compound, the GI50 (Colorectal, sample 260, GI50 in nM, read-out: log(GI50) (converted)) was no less than 10 nM, the GI50 (Colorectal, sample 260, read-out: GI50) was 10 nM and the GI50 (Colorectal, sample 268, GI50 in nM, read-out: log(GI50) (converted)) was 6.24 nM. It also gave a GI50 (Colorectal, sample 268, read-out: GI50) of 6.24 nM, a GI50 (Colorectal, sample 280, GI50 in nM, read-out: log(GI50) (converted)) of no less than 10 nM and a GI50 (Colorectal, sample 280, read-out: GI50) of 10 nM. The GI50 (Colorectal, sample 504, GI50 in nM, read-out: log(GI50) (converted)) was 0.273 nM, the GI50 (Colorectal, sample 504, read-out: GI50) was 0.273 nM and the GI50 (Colorectal, sample 533, GI50 in nM, read-out: log(GI50) (converted)) was 1.75 nM. For the same compound, the GI50 (Colorectal, sample 533, read-out: GI50) was 1.75 nM, the GI50 (Colorectal, sample 609, GI50 in nM, read-out: log(GI50) (converted)) was no less than 10 nM and the GI50 (Colorectal, sample 609, read-out: GI50) was 10 nM. For the same compound, the GI50 (Colorectal, sample 647, GI50 in nM, read-out: log(GI50) (converted)) was no less than 10 nM, the GI50 (Colorectal, sample 647, read-out: GI50) was 10 nM and the GI50 (Colorectal, sample 676, GI50 in nM, read-out: log(GI50) (converted)) was no less than 10 nM. The GI50 (Colorectal, sample 676, read-out: GI50) was 10 nM, the GI50 (Colorectal, sample 742, GI50 in nM, read-out: log(GI50) (converted)) was 1.87 nM and the GI50 (Colorectal, sample 742, read-out: GI50) was 1.87 nM. It also gave a GI50 (Colorectal, sample 975, GI50 in nM, read-out: log(GI50) (converted)) of no less than 10 nM, a GI50 (Colorectal, sample 975, read-out: GI50) of 10 nM and a GI50 (Colorectal, sample 1034, GI50 in nM, read-out: log(GI50) (converted)) of 0.214 nM. It also gave a GI50 (Colorectal, sample 1034, read-out: GI50) of 0.214 nM, a GI50 (Colorectal, sample 1044, GI50 in nM, read-out: log(GI50) (converted)) of 0.612 nM and a GI50 (Colorectal, sample 1044, read-out: GI50) of 0.612 nM. For the same compound, the GI50 (Colorectal, sample 1103, GI50 in nM, read-out: log(GI50) (converted)) was 1 nM, the GI50 (Colorectal, sample 1103, read-out: GI50) was 1 nM and the GI50 (Colorectal, sample 1297, GI50 in nM, read-out: log(GI50) (converted)) was no less than 10 nM. It also gave a GI50 (Colorectal, sample 1297, read-out: GI50) of 10 nM, a GI50 (Colorectal, sample 1299, GI50 in nM, read-out: log(GI50) (converted)) of no less than 10 nM and a GI50 (Colorectal, sample 1299, read-out: GI50) of 10 nM. The GI50 (Colorectal, sample 1729, GI50 in nM, read-out: log(GI50) (converted)) was no less than 10 nM, the GI50 (Colorectal, sample 1729, read-out: GI50) was 10 nM and the GI50 (Colorectal, sample 1753, GI50 in nM, read-out: log(GI50) (converted)) was 11.3 nM. The GI50 (Colorectal, sample 1753, read-out: GI50) was 11.3 nM, the GI50 (Colorectal, sample 1783, GI50 in nM, read-out: log(GI50) (converted)) was 0.721 nM and the GI50 (Colorectal, sample 1783, read-out: GI50) was 0.721 nM. The GI50 (Colorectal, sample 1784, GI50 in nM, read-out: log(GI50) (converted)) was 5.97 nM, the GI50 (Colorectal, sample 1784, read-out: GI50) was 5.97 nM and the GI50 (Colorectal, sample 1788, GI50 in nM, read-out: log(GI50) (converted)) was 2.24 nM. The GI50 (Colorectal, sample 1788, read-out: GI50) was 2.25 nM, the GI50 (DU-145, Prostate, sample DU145, GI50 in nM, read-out: log(GI50) (converted)) was 1 nM and the GI50 (DU-145, Prostate, sample DU145, read-out: GI50) was 1 nM. For the same compound, the GI50 (Gastric, sample 209, GI50 in nM, read-out: log(GI50) (converted)) was no less than 10 nM, the GI50 (Gastric, sample 209, read-out: GI50) was 10 nM and the GI50 (Gastric, sample 214, GI50 in nM, read-out: log(GI50) (converted)) was 8.99 nM. For the same compound, the GI50 (Gastric, sample 214, read-out: GI50) was 9 nM, the GI50 (Gastric, sample 1172, GI50 in nM, read-out: log(GI50) (converted)) was no less than 10 nM and the GI50 (Gastric, sample 1172, read-out: GI50) was 10 nM. For the same compound, the GI50 (Jurkat, Leukemia (ALL), sample JURKAT, GI50 in nM, read-out: log(GI50) (converted)) was 0.106 nM, the GI50 (Jurkat, Leukemia (ALL), sample JURKAT, read-out: GI50) was 0.106 nM and the GI50 (K562, Leukemia (CML), sample K562, GI50 in nM, read-out: log(GI50) (converted)) was 0.27 nM. The GI50 (K562, Leukemia (CML), sample K562, read-out: GI50) was 0.27 nM and the GI50 (MOLT-4, Leukemia (ALL), sample MOLT4, GI50 in nM, read-out: log(GI50) (converted)) was 0.877 nM.

Source: patent publication US8252832B2, “Kinesin inhibitors as cancer therapeutics” (Novartis AG, priority 2007, dated 2012)
